Data published in patent US6825187B2, “Carbapenem derivatives of quarternary salt type” (Meiji Seika Kaisha, Ltd., priority 2000, dated 2004).
≈ marks a conversion by molar mass, not a printed value. Structures can show the parent of a compound that is named as a salt.

Columns and labels:
[1] = tested on: S. pneumoniae PRC 9 (Penicillin-hyperresistant strain); test: Antimicrobial activities, MIC; assay type: cell-based; conditions: Sensitivity Disk agar-N+5% Horse blood, inoculants 10^6 CFU/ml
Description: (§1) The minimum inhibiting concentrations (MIC, μg/ml) of representative compounds, among the novel carbapenem derivatives of the present invention, to various pathogenic bacteria were measured in accordance with the method described in CHEMOTHERAPY, vol. 16, No. 1, 99, 1968. The culture medium for the measurement is Sensitivity Disk agar-N+5% Horse blood, and the amount of inoculants used is 10^6 CFU/ml.

S. aureus 209P JC-1 = test: Antimicrobial activities, MIC; assay type: cell-based; conditions: Sensitivity Disk agar-N+5% Horse blood, inoculants 10^6 CFU/ml
Description: as §1

E. faecalis W-73 = test: Antimicrobial activities, MIC; assay type: cell-based; conditions: inoculants 10^6 CFU/ml; for minimum inhibiting concentrations (MIC): Sensitivity Disk agar-N+5% Horse blood
Description: as §1

[2] = tested on: S. aureus M 126 (Methicillin-hyperresistant strain); test: Antimicrobial activities, MIC; assay type: cell-based; conditions: Sensitivity Disk agar-N+5% Horse blood, inoculants 10^6 CFU/ml
Description: as §1

E. coli NIHJ JC-2 = test: Antimicrobial activities, MIC; assay type: cell-based; conditions: inoculants 10^6 CFU/ml; for minimum inhibiting concentrations (MIC): Sensitivity Disk agar-N+5% Horse blood
Description: as §1

K. pneumoniae PC 1602 = test: Antimicrobial activities, MIC; assay type: cell-based; conditions: inoculants 10^6 CFU/ml; for minimum inhibiting concentrations (MIC): Sensitivity Disk agar-N+5% Horse blood
Description: as §1

P. vulgaris GN 7919 = test: Antimicrobial activities, MIC; assay type: cell-based; conditions: inoculants 10^6 CFU/ml; for minimum inhibiting concentrations (MIC): Sensitivity Disk agar-N+5% Horse blood
Description: as §1

[3] = tested on: S. epidermidis ATCC 14990; test: Antimicrobial activities, MIC; assay type: cell-based; conditions: inoculants 10^6 CFU/ml; for minimum inhibiting concentrations (MIC): Sensitivity Disk agar-N+5% Horse blood
Description: as §1

H. influenzae PRC 2 = test: Antimicrobial activities, MIC; assay type: cell-based; conditions: inoculants 10^6 CFU/ml; for minimum inhibiting concentrations (MIC): Sensitivity Disk agar-N+5% Horse blood
Description: as §1

H. influenzae PRC 44 = test: Antimicrobial activities, MIC; assay type: cell-based; conditions: inoculants 10^6 CFU/ml; for minimum inhibiting concentrations (MIC): Sensitivity Disk agar-N+5% Horse blood
Description: as §1

E. hirae ATCC 8043 = test: Antimicrobial activities, MIC; assay type: cell-based; conditions: inoculants 10^6 CFU/ml; for minimum inhibiting concentrations (MIC): Sensitivity Disk agar-N+5% Horse blood
Description: as §1

C. freundii GN 346 = test: Antimicrobial activities, MIC; assay type: cell-based; conditions: inoculants 10^6 CFU/ml; for minimum inhibiting concentrations (MIC): Sensitivity Disk agar-N+5% Horse blood
Description: as §1

B. catarrhalis W-0500 = test: Antimicrobial activities, MIC; assay type: cell-based; conditions: inoculants 10^6 CFU/ml; for minimum inhibiting concentrations (MIC): Sensitivity Disk agar-N+5% Horse blood
Description: as §1

mice (ICR, male) = test: Acute Toxicity Test; assay type: in vivo; conditions: intraveneously administered, 2000 mg/kg, one group of three mice
Description: The compound of Example 3 according to the present invention was intraveneously administered at a dose of 2000 mg/kg to mice (ICR, male) (one group consisting of three mice).

[4] = Staphylococcus aureus, read-out: minimum inhibiting concentrations (MIC)

minimum inhibiting concentrations (MIC) [1] [µg/mL]	minimum inhibiting concentrations (MIC) (S. aureus 209P JC-1) [µg/mL]	minimum inhibiting concentrations (MIC) (E. faecalis W-73) [µg/mL]	minimum inhibiting concentrations (MIC) [2] [µg/mL]	minimum inhibiting concentrations (MIC) (E. coli NIHJ JC-2) [µg/mL]	minimum inhibiting concentrations (MIC) (K. pneumoniae PC 1602) [µg/mL]	minimum inhibiting concentrations (MIC) (P. vulgaris GN 7919) [µg/mL]	minimum inhibiting concentrations (MIC) [3] [µg/mL]	minimum inhibiting concentrations (MIC) (H. influenzae PRC 2) [µg/mL]	minimum inhibiting concentrations (MIC) (H. influenzae PRC 44) [µg/mL]	minimum inhibiting concentrations (MIC) (E. hirae ATCC 8043) [µg/mL]	minimum inhibiting concentrations (MIC) (C. freundii GN 346) [µg/mL]	minimum inhibiting concentrations (MIC) (B. catarrhalis W-0500) [µg/mL]	SMILES	also measured
0.025	<0.025	0.20	0.39	0.05	0.10	0.39	<0.025	0.05	0.78	0.39	0.10	0.025	CSc1c2sc(C3=C(C(=O)[O-])N4C(=O)[C@H]([C@@H](C)O)[C@H]4[C@H]3C)cn2c[n+]1CCCN.Cl [Example 14, (1S,5R,6S)-2-[6-(3-aminopropyl)-7-methylthioimidazo[5,1-b]thiazolium-2-yl]-6-((1R)-1-hydroxyethyl)-1-methyl-1-carbapen-2-em-3-carboxylate (intramolecular salt) hydrochloride]	–
0.05	<0.025	0.20	0.78	0.05	0.10	0.39	<0.025	0.10	0.78	0.39	0.20	0.05	CSc1c2sc(C3=C(C(=O)[O-])N4C(=O)[C@H]([C@@H](C)O)[C@H]4[C@H]3C)cn2c[n+]1C[C@H](O)CN.Cl [Example 99, (1S,5R,6S)-2-[6-((2R)-3-amino-2-hydroxy)propyl-7-methylthioimidazo[5,1-b]thiazolium-2-yl]-6-((1R)-1-hydroxyethyl)-1-methyl-1-carbapen-2-em-3-carboxylate (intramolecular salt) hydrochloride]	–

The remaining lines, values behind:

SMILES	minimum inhibiting concentrations (MIC) [1] [µg/mL]	minimum inhibiting concentrations (MIC) (S. aureus 209P JC-1) [µg/mL]	minimum inhibiting concentrations (MIC) (E. faecalis W-73) [µg/mL]	minimum inhibiting concentrations (MIC) [2] [µg/mL]	minimum inhibiting concentrations (MIC) (E. coli NIHJ JC-2) [µg/mL]	minimum inhibiting concentrations (MIC) (K. pneumoniae PC 1602) [µg/mL]	minimum inhibiting concentrations (MIC) (P. vulgaris GN 7919) [µg/mL]	minimum inhibiting concentrations (MIC) [3] [µg/mL]	minimum inhibiting concentrations (MIC) (H. influenzae PRC 2) [µg/mL]	minimum inhibiting concentrations (MIC) (H. influenzae PRC 44) [µg/mL]	minimum inhibiting concentrations (MIC) (E. hirae ATCC 8043) [µg/mL]	minimum inhibiting concentrations (MIC) (C. freundii GN 346) [µg/mL]	minimum inhibiting concentrations (MIC) (B. catarrhalis W-0500) [µg/mL]	also measured
C[C@@H](O)[C@H]1C(=O)N2C(C(=O)O)=C(SCCN=CN)C[C@H]12 [Compound A, Imipenem, reference compound]	–	–	–	–	–	–	–	–	–	–	–	–	–	MIC ([1]; Streptococcus pneumoniae, read-out: minimum inhibiting concentrations (MIC)): 0.2 µg/mL (≈ 0.668 µM); MIC (S. aureus 209P JC-1; [4]): < 0.025 µg/mL; MIC (E. faecalis W-73; Enterococcus faecalis, W73, Sensitivity Disk agar-N+5% Horse blood, read-out: minimum inhibiting concentrations (MIC)): 0.78 µg/mL (≈ 2.61 µM); MIC [2, 4]: 25 µg/mL (≈ 83.5 µM); MIC (E. coli NIHJ JC-2; Escherichia coli, NIHJJC2, Sensitivity Disk agar-N+5% Horse blood, read-out: minimum inhibiting concentrations (MIC)): 0.1 µg/mL (≈ 0.334 µM); MIC (K. pneumoniae PC 1602; Klebsiella pneumoniae, PC1602, Sensitivity Disk agar-N+5% Horse blood, read-out: minimum inhibiting concentrations (MIC)): 0.2 µg/mL (≈ 0.668 µM); MIC (P. vulgaris GN 7919; Proteus vulgaris, GN7919, Sensitivity Disk agar-N+5% Horse blood, read-out: minimum inhibiting concentrations (MIC)): 0.1 µg/mL (≈ 0.334 µM); MIC ([3]; Staphylococcus epidermidis, ATCC14990, Sensitivity Disk agar-N+5% Horse blood, read-out: minimum inhibiting concentrations (MIC)): < 0.025 µg/mL; MIC (H. influenzae PRC 2; Haemophilus influenzae, PRC2, Sensitivity Disk agar-N+5% Horse blood, read-out: minimum inhibiting concentrations (MIC)): 0.79 µg/mL (≈ 2.64 µM); MIC (H. influenzae PRC 44; Haemophilus influenzae, PRC44, Sensitivity Disk agar-N+5% Horse blood, read-out: minimum inhibiting concentrations (MIC)): 12.5 µg/mL (≈ 41.8 µM); MIC (E. hirae ATCC 8043; Enterococcus hirae, ATCC8043, Sensitivity Disk agar-N+5% Horse blood, read-out: minimum inhibiting concentrations (MIC)): 0.78 µg/mL (≈ 2.61 µM); MIC (C. freundii GN 346; Citrobacter freundii, GN346, Sensitivity Disk agar-N+5% Horse blood, read-out: minimum inhibiting concentrations (MIC)): 0.2 µg/mL (≈ 0.668 µM); MIC (B. catarrhalis W-0500; Moraxella catarrhalis, W0500, Sensitivity Disk agar-N+5% Horse blood, read-out: minimum inhibiting concentrations (MIC)): 0.05 µg/mL (≈ 0.167 µM)
C[C@@H](O)[C@H]1C(=O)N2C(C(=O)[O-])=C(c3cn4c[n+](C)cc4s3)[C@H](C)[C@H]12 [Compound B, (1S,5R,6S)-6-((1R)-1-Hydroxyethyl)-1-methyl-2-(6-methylimidazo[5,1-b]thiazolium-2-yl)-1-carbapen-2-em-3-carboxylate (intramolecular salt), reference compound]	0.05	<0.025	0.20	3.13	<0.025	0.10	0.20	<0.025	0.10	0.39	0.78	0.10	<0.025	–
CSc1c2sc(C3=C(C(=O)[O-])N4C(=O)[C@H]([C@@H](C)O)[C@H]4[C@H]3C)cn2c[n+]1C [Example 2, (1S,5R,6S)-6-((1R)-1-hydroxyethyl)-1-methyl-2-(6-methyl-7-methylthioimidazo[5,1-b]thiazolium-2-yl)-1-carbapen-2-em-3-carboxylate (intramolecular salt)]	0.025	<0.025	0.20	1.56	0.025	0.10	0.20	<0.025	0.05	0.20	0.78	0.10	0.025	–
CSc1c2sc(C3=C(C(=O)[O-])N4C(=O)[C@H]([C@@H](C)O)[C@H]4[C@H]3C)cn2c[n+]1CC(N)=O [Example 3, (1S,5R,6S)-2-(6-carbamoylmethyl-7-methylthioimidazo[5,1-b]thiazolium-2-yl)-6-((1R)-1-hydroxyethyl)-1-methyl-1-carbapen-2-em-3-carboxylate (intramolecular salt)]	0.025	<0.025	0.20	1.56	0.025	0.10	0.20	<0.025	0.05	0.20	0.39	0.20	0.025	survival in acute toxicity test (mice (ICR, male)): all the mice survived
